In one data set the test system is acetylated histone H3. In words: Accumulation of acetylated histone H3 in LNCaP cells (blot). Format: cell-based, human. Conditions: FIG. 2. The text has this:
(§1) FIG. 2. Blot showing accumulation of acetylated alpha-tubulin and acetylated histone H3 in LNCaP cells cultured with compound 6. GADPH used as loading control.
(§2) Recombinant HDAC1 and HDAC6 are used to evaluate the selective inhibitory potency of each compound. Cell based assays: Normal cells (Human Foreskin Fibroblast cells), LNCaP (human prostate cancer cells), MCF-7 (human breast cancer cells, A549 (human adenocarcinoma of lung cells) and ARP-1 (human multiple myeloma cells) are used in these assays. Cells were cultured for up to 72 hr without and with the potential HDAC6-selective inhibitor. SAHA was used as a control. Cell number and cell viability were determined by enumeration. Proteins were extracted from cells and assayed for accumulation of acetylated tubulin and acetylated histones. All methods are described in Namdar et al., PNAS, 2010, 107:20003-8. In vivo animal studies: Potential HDAC6 inhibitor compounds are further assayed by administration to mice for up to 5 days with daily injections. Animals are sacrificed and tissues are analyzed for accumulation of acetylated tubulin and acetylated histones.

A further data set has as its system acetylated alpha-tubulin. In words: Accumulation of acetylated alpha-tubulin in LNCaP cells (blot). Format: cell-based, human. Conditions: for identified as HDAC6-selective inhibitor: on the basis of accumulation of acetylated tubulin without accumulation of acetylated histones.
Text: as §1, §2

Data set [1] deals with LNCaP cells. In words: Cell growth assay in LNCaP cells. Conditions: FIG. 3. Format: cell-based, human. Here is the method: FIG. 3. Cell growth assay data in LNCaP cells with compound 6.
as §2

For another data set, the target named is T1, HDAC6 (Homo sapiens, UniProt Q9UBN7).
T1 sequence (Q9UBN7 1-1215): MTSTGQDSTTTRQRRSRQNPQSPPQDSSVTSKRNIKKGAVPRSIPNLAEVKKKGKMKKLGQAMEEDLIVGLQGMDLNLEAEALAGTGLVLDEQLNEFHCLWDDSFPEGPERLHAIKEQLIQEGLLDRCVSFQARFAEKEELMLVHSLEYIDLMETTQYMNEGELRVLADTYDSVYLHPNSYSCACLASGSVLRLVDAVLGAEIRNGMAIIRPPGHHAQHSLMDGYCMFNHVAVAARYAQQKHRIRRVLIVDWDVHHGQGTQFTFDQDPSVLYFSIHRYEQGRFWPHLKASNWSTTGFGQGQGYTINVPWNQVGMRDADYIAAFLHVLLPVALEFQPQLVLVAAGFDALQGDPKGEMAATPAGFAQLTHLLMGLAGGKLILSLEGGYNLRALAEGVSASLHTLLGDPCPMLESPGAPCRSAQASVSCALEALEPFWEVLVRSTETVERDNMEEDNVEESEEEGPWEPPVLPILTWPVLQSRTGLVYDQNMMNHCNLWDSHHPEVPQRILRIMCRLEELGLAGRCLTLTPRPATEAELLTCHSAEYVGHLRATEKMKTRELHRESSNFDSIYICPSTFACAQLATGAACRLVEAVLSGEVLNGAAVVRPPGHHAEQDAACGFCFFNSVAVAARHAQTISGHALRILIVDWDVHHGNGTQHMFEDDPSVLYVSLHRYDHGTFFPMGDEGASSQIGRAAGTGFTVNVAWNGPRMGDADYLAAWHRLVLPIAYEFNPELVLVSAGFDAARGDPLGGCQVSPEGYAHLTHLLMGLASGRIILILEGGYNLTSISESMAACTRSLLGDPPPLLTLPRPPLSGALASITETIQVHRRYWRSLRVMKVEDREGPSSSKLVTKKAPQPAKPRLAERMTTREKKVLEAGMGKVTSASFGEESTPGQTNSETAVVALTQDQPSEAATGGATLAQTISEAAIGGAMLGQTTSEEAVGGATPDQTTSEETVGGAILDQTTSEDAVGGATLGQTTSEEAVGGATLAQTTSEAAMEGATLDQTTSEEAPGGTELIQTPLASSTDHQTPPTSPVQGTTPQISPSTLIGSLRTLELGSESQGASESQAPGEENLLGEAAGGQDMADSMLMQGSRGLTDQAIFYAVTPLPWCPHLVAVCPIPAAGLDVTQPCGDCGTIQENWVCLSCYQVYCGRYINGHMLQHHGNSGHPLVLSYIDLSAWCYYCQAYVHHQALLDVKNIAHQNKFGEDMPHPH
In words: Recombinant HDAC1 and HDAC6 selective inhibitory potency. Format: biochemical. On the procedure: as §2

Data set [2] relates to LNCaP cells. Nature of the data set: Cell viability assay in LNCaP cells. Format: cell-based. On the procedure: FIG. 4. Cell viability assay data in LNCaP cells with compound 6.
as §2

In a further data set the test system is known human HDACs. Conditions: background statement; cited from earlier work.
For a further data set, the system named is cell motility. Conditions: Haggarty et al. (6); cited from earlier work.
Data set [3] addresses T2, C-terminal catalytic domain of HDAC6 (Homo sapiens, UniProt Q9UBN7).
T2 sequence (Q9UBN7 1-1215): T1 sequence (Q9UBN7 1-1215)
Conditions: Haggarty et al. (6); cited from earlier work.

For a further data set, the system named is microtubules. Conditions: Haggarty et al. (6); cited from earlier work.

For `O=C(NO)c1ccc(CC(=O)N(CCO)c2ccccc2)cc1` [Compound 6, N-hydroxy-4-(2-((2-hydroxyethyl)(phenyl)amino)-2-oxoethyl) benzamide], the “induction of H3 acetylation” value with acetylated histone H3 is “without induction of H3 acetylation”. In addition, the “levels of tubulin acetylation” value with acetylated alpha-tubulin (LNCaP cells, FIG. 2) is on record as “significant levels of tubulin acylation were present”. In addition, in the data set with acetylated alpha-tubulin (in the absence of histone acetylation), the “levels of tubulin acetylation reached in the absence of histone acetylation, compared with tubacin” value is listed as “greater than selective levels with tubacin”. Also, in the data set with acetylated alpha-tubulin, the “identified as HDAC6-selective inhibitor” value was “HDAC6-selective inhibitors”. Besides, the cell number result with LNCaP cells [1] is recorded as “inhibits cell number”. For the same compound, the “HDAC inhibitor selectivity for HDAC6 relative to HDAC1” value on HDAC6 is listed as “selective for HDAC6 relative to HDAC1”. In the data set with LNCaP cells [2] (FIG. 4), the cell viability entry is recorded as “does not decrease cell viability”. In the data set with LNCaP cells [2] (concentrations as high as 32 μM), the “death of LNCaP cells” value is “no detectable death of LNCaP cells”. `O=C(NO)c1ccc(CC(=O)N(CCO)c2cccc3cccnc23)cc1` [Compound 14, N-hydroxy-4-(2-((2-hydroxyethyl)(quinolin-8-yl)amino)-2-oxoethyl) benzamide]: the “identified as HDAC6-selective inhibitor” value in the data set on acetylated alpha-tubulin was “HDAC6-selective inhibitors”. Further, the “HDAC inhibitor selectivity for HDAC6 relative to HDAC1” value at HDAC6 was “selective for HDAC6 relative to HDAC1”. Regarding `O=C(/C=C/C(=O)Nc1ccc(CC(=O)N(CCO)c2ccccc2)cc1)NO` [Compound 21], at HDAC6, the “HDAC inhibitor selectivity for HDAC6 relative to HDAC1” value is given as “selective for HDAC6 relative to HDAC1”. The same measure, in the same setting: as for `O=C(NO)Nc1ccc(CC(=O)N(CCO)c2ccccc2)cc1` [Compound 24], the entry is “selective for HDAC6 relative to HDAC1”; as for `O=C(NO)C(=O)Nc1ccc(CC(=O)N(CCO)c2ccccc2)cc1` [Compound 26], “selective for HDAC6 relative to HDAC1”; as for `O=C(NO)c1ccc(NCC(=O)N(CCO)c2ccccc2)cc1` [Compound 27], “selective for HDAC6 relative to HDAC1”. The same measure, in the same setting: as for `O=C(CN(CCO)c1ccccc1)Nc1ccc(C(=O)NO)cc1` [Compound 30], the entry is “selective for HDAC6 relative to HDAC1”; as for `O=C(CC(=O)Nc1ccc(CC(=O)N(CCO)c2ccccc2)cc1)NO` [Compound 31], “selective for HDAC6 relative to HDAC1”; as for `O=C(CN(CCO)c1ccccc1)Oc1ccc(C(=O)NO)cc1` [Compound 32], “selective for HDAC6 relative to HDAC1”. As for `O=C(NO)c1ccc(C(=O)N(CCO)c2ccccc2)cc1` [Compound 33], at HDAC6, the “HDAC inhibitor selectivity for HDAC6 relative to HDAC1” value is reported as “selective for HDAC6 relative to HDAC1”.

For `O=C(Cc1ccc(C(=O)N(CCO)c2ccccc2)cc1)NO` [Compound 34], the “HDAC inhibitor selectivity for HDAC6 relative to HDAC1” value at HDAC6 was “selective for HDAC6 relative to HDAC1”. Same read-out and setting: as for `O=C(CCc1ccc(C(=O)N(CCO)c2ccccc2)cc1)NO` [Compound 35], the entry is “selective for HDAC6 relative to HDAC1”. On the same count and under the same terms, the value for `O=C(CCc1ccc(CC(=O)N(CCO)c2ccccc2)cc1)NO` [Compound 36] was “selective for HDAC6 relative to HDAC1”. Take `O=C(NO)c1cccc2c1ccn2CC(=O)N(CCO)c1ccccc1` [Compound 37]: the “HDAC inhibitor selectivity for HDAC6 relative to HDAC1” value on HDAC6 was “selective for HDAC6 relative to HDAC1”. On the same count and under the same terms, as for `O=C(NO)c1cccc2c1ncn2CC(=O)N(CCO)c1ccccc1` [Compound 43], the entry is “selective for HDAC6 relative to HDAC1”; as for `O=C(NO)c1cccc(CC(=O)N(CCO)c2ccccc2)c1` [Compound 79, N-hydroxy-3-(2-((2-hydroxyethyl)(phenyl)amino)-2-oxoethyl) benzamide], “selective for HDAC6 relative to HDAC1”. Turning to `O=C(CCCCCCC(=O)Nc1ccccc1)NO` [SAHA, suberoylanilide hydroxamic acid, reference compound], the “death of LNCaP cells” value in the data set on LNCaP cells [2] (SAHA control) is listed as “kills LNCaP cells”. Moreover, the “selectivity of inhibitory activity among known human HDACs” value in the data set with known human HDACs was “not selective among the known human HDACs”.

In the case of `O=C(CCCCCCC(=O)Nc1ccc([C@H]2O[C@@H](CSc3nc(-c4ccccc4)c(-c4ccccc4)o3)C[C@@H](c3ccc(CO)cc3)O2)cc1)NO` [tubacin], in the data set on cell motility, the cell motility entry is reported as “decreased cell motility”. Besides, in [3], the “inhibition of C-terminal catalytic domain of HDAC6 (α-tubulin deacetylation)” value is listed as “can be inhibited”. In addition, the stability of microtubules result in the data set on microtubules was “did not affect the stability of microtubules”.

Values taken from patent US20170066712A1, “NOVEL MOLECULES THAT SELECTIVELY INHIBIT HISTONE DEACETYLASE 6 RELATIVE TO HISTONE DEACETYLASE” (The Trustees of Columbia University in the City of New York, priority 2011, published 2017).
